# According to patent US7709636B2, “Pyrazole sulfonylurea compound and herbicide” (Nissan Chemical Industries, Ltd., priority 2004, dated 2010):
# Columns and labels:
# Digitaria adscendes [1] = assay: Herbicidal effect test by foliage treatment; assay type: in vivo; details: 1.6 g/a; foliage treatment after growth of 14 days; 3 weeks after treatment
# Method in brief: (§1)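 Post-emergence foliar spray: plants raised 14 d in greenhouse (25–30° C) from seed in sterilized diluvial soil, sprayed with diluted wettable powder formulation, injury rated visually at 3 wk.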
# Amaranthus retroflexus [2] = assay: Herbicidal effect test by foliage treatment; assay type: in vivo; details: 1.6 g/a; foliage treatment after growth of 14 days; 3 weeks after treatment
# Method in brief: as §1
# Beta vulgaris (beet) [3] = assay: Herbicidal effect test by foliage treatment; assay type: in vivo; details: 1.6 g/a; foliage treatment after growth of 14 days; 3 weeks after treatment
# Method in brief: as §1
# Chenopodium album [4] = assay: Herbicidal effect test by foliage treatment; assay type: in vivo; details: 1.6 g/a; foliage treatment after growth of 14 days; 3 weeks after treatment
# Method in brief: as §1
# Setaria viridis [5] = assay: Herbicidal effect test by foliage treatment; assay type: in vivo; details: 1.6 g/a; foliage treatment after growth of 14 days; 3 weeks after treatment
# Method in brief: as §1
# corn (Zea mays) [6] = assay: Herbicidal effect test by foliage treatment; assay type: in vivo; details: 1.6 g/a; foliage treatment after growth of 14 days; 3 weeks after treatment
# Method in brief: as §1
# Stellaria media [7] = assay: Herbicidal effect test by foliage treatment; assay type: in vivo; details: 1.6 g/a; foliage treatment after growth of 14 days; 3 weeks after treatment
# Method in brief: as §1
# Black-grass [8] = assay: Herbicidal effect test by foliage treatment; assay type: in vivo; details: 1.6 g/a; foliage treatment after growth of 14 days; 3 weeks after treatment
# Method in brief: as §1
# Echinochloa crus-galli [9] = assay: Herbicidal effect test by foliage treatment; assay type: in vivo; details: 1.6 g/a; foliage treatment after growth of 14 days; 3 weeks after treatment
# Method in brief: as §1
# Avena fatua [10] = assay: Herbicidal effect test by foliage treatment; assay type: in vivo; details: 1.6 g/a; foliage treatment after growth of 14 days; 3 weeks after treatment
# Method in brief: as §1
# [11] = tested on: Triticum aestivum (wheat); assay: Herbicidal effect test by foliage treatment; assay type: in vivo; details: 1.6 g/a; foliage treatment after growth of 14 days; 3 weeks after treatment
# Method in brief: as §1
# Ambrosia elatior [12] = assay: Herbicidal effect test by foliage treatment; assay type: in vivo; details: 1.6 g/a; foliage treatment after growth of 14 days; 3 weeks after treatment
# Method in brief: as §1
# Polygonum blumei [13] = assay: Herbicidal effect test by foliage treatment; assay type: in vivo; details: 1.6 g/a; foliage treatment after growth of 14 days; 3 weeks after treatment
# Method in brief: as §1
# soybean (Glycine max) [14] = assay: Herbicidal effect test by foliage treatment; assay type: in vivo; details: 1.6 g/a; foliage treatment after growth of 14 days; 3 weeks after treatment
# Method in brief: as §1
# Abutilon avicennae [15] = assay: Herbicidal effect test by foliage treatment; assay type: in vivo; details: 1.6 g/a; foliage treatment after growth of 14 days; 3 weeks after treatment
# Method in brief: as §1
# Digitaria adscendes [16] = assay: Herbicidal effect test by soil treatment; assay type: in vivo; details: 1.6 g/a, 3 weeks after treatment
# Method in brief: (§2)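 Pre-emergence soil application: wettable powder formulation, water-diluted to set dose, sprayed evenly over soil surface after sowing; seeds under ~1.5 cm sterilized diluvial soil. Effect rated at 3 wk by criteria scale.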
# Amaranthus retroflexus [17] = assay: Herbicidal effect test by soil treatment; assay type: in vivo; details: 1.6 g/a, 3 weeks after treatment
# Method in brief: as §2
# Beta vulgaris (beet) [18] = assay: Herbicidal effect test by soil treatment; assay type: in vivo; details: 1.6 g/a, 3 weeks after treatment
# Method in brief: as §2
# Chenopodium album [19] = assay: Herbicidal effect test by soil treatment; assay type: in vivo; details: 1.6 g/a, 3 weeks after treatment
# Method in brief: as §2
# Setaria viridis [20] = assay: Herbicidal effect test by soil treatment; assay type: in vivo; details: 1.6 g/a, 3 weeks after treatment
# Method in brief: as §2
# corn (Zea mays) [21] = assay: Herbicidal effect test by soil treatment; assay type: in vivo; details: 1.6 g/a, 3 weeks after treatment
# Method in brief: as §2
# Stellaria media [22] = assay: Herbicidal effect test by soil treatment; assay type: in vivo; details: 1.6 g/a, 3 weeks after treatment
# Method in brief: as §2
# Black-grass [23] = assay: Herbicidal effect test by soil treatment; assay type: in vivo; details: 1.6 g/a, 3 weeks after treatment
# Method in brief: as §2
# Echinochloa crus-galli [24] = assay: Herbicidal effect test by soil treatment; assay type: in vivo; details: 1.6 g/a, 3 weeks after treatment
# Method in brief: as §2
# Avena fatua [25] = assay: Herbicidal effect test by soil treatment; assay type: in vivo; details: 1.6 g/a, 3 weeks after treatment
# Method in brief: as §2
# [26] = tested on: Triticum aestivum (wheat); assay: Herbicidal effect test by soil treatment; assay type: in vivo; details: 1.6 g/a, 3 weeks after treatment
# Method in brief: as §2
# Ambrosia elatior [27] = assay: Herbicidal effect test by soil treatment; assay type: in vivo; details: 1.6 g/a, 3 weeks after treatment
# Method in brief: as §2
# Polygonum blumei [28] = assay: Herbicidal effect test by soil treatment; assay type: in vivo; details: 1.6 g/a, 3 weeks after treatment
# Method in brief: as §2
# soybean (Glycine max) [29] = assay: Herbicidal effect test by soil treatment; assay type: in vivo; details: 1.6 g/a, 3 weeks after treatment
# Method in brief: as §2
# Abutilon avicennae [30] = assay: Herbicidal effect test by soil treatment; assay type: in vivo; details: 1.6 g/a, 3 weeks after treatment
# Method in brief: as §2
# Monochoria vaginalis [31] = assay: Herbicidal effect test in submerged condition by treatment before weed-generation (1); assay type: in vivo; details: 0.64 g/a, water surface treated on day of sowing, 3 weeks after treatment
# Method in brief: (§3)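 Pre-emergence water-surface application of diluted wettable-powder formulation at a predetermined rate, same day as sowing, in flooded alluvial soil (4 cm water) with transplanted 2.5-leaf rice. Grown 3 weeks at 25 to 30° C in greenhouse; rated 0–5 by herbicidal rate.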
# Echinochloa crus-galli [32] = assay: as above; assay type: in vivo; details: 0.64 g/a, water surface treated on day of sowing, 3 weeks after treatment
# Method in brief: as §3
# Scirpus juncoides [33] = assay: as above; assay type: in vivo; details: 0.64 g/a, water surface treated on day of sowing, 3 weeks after treatment
# Method in brief: as §3
# Monochoria vaginalis [34] = assay: Herbicidal effect test in submerged condition by treatment during weed-growth stage (1); assay type: in vivo; details: 0.64 g/a, treated at 1st to 2nd leaf stage, 3 weeks after treatment
# Method in brief: (§4)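 Paddy-soil pots flooded to 4 cm water depth were sown and grown in a greenhouse at 25 to 30° C until weeds reached 1st to 2nd leaf stage. A wettable powder diluted in water to a predetermined formulation amount was applied to the water surface. Herbicidal effect was scored 3 weeks after treatment against set criteria.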
# Echinochloa crus-galli [35] = assay: as above; assay type: in vivo; details: 0.64 g/a, treated at 1st to 2nd leaf stage, 3 weeks after treatment
# Method in brief: as §4
# Scirpus juncoides [36] = assay: as above; assay type: in vivo; details: 0.64 g/a, treated at 1st to 2nd leaf stage, 3 weeks after treatment
# Method in brief: as §4
# direct sown rice [37] = assay: Herbicidal effect test by soil treatment; assay type: in vivo, Oryza sativa; details: 1.6 g/a, 3 weeks after treatment
# Method in brief: as §2
# direct sown rice [38] = assay: Herbicidal effect test by foliage treatment; assay type: in vivo, Oryza sativa; details: 1.6 g/a; foliage treatment after growth of 14 days; 3 weeks after treatment
# Method in brief: as §1
smiles,measurement,setting,value
"COc1cc(OC)nc(NC(=O)NS(=O)(=O)c2c(C3=NOCC(C)(C)O3)c(C)nn2C)n1 [Compound 7, N-((4,6-dimethoxypyrimidin-2-yl)aminocarbonyl)-4-(5,5-dimethyl-5H,6H-1,4,2-dioxadin-3-yl)-1,3-dimethylpyrazole-5-sulfonamide]","herbicidal effect, D: Digitaria adscendes",Digitaria adscendes [1],5 (Herbicidal rate 90% or more (almost complete death))
same,"herbicidal effect, J: Amaranthus retroflexus",Amaranthus retroflexus [2],4 (Herbicidal rate 70% or more and less than 90%)
same,"herbicidal effect, f: Beta vulgaris (beet)",Beta vulgaris (beet) [3],5 (Herbicidal rate 90% or more (almost complete death))
same,"herbicidal effect, K: Chenopodium album",Chenopodium album [4],5 (Herbicidal rate 90% or more (almost complete death))
same,"herbicidal effect, E: Setaria viridis",Setaria viridis [5],4 (Herbicidal rate 70% or more and less than 90%)
same,"herbicidal effect, b: corn (Zea mays)",corn (Zea mays) [6],5 (Herbicidal rate 90% or more (almost complete death))
same,"herbicidal effect, M: Stellaria media",Stellaria media [7],5 (Herbicidal rate 90% or more (almost complete death))
same,"herbicidal effect, G: Black-grass",Black-grass [8],5 (Herbicidal rate 90% or more (almost complete death))
same,"herbicidal effect, A: Echinochloa crus-galli",Echinochloa crus-galli [9],5 (Herbicidal rate 90% or more (almost complete death))
same,"herbicidal effect, F: Avena fatua",Avena fatua [10],5 (Herbicidal rate 90% or more (almost complete death))
same,"herbicidal effect, e: Triticum aestivum (wheat)",[11],5 (Herbicidal rate 90% or more (almost complete death))
same,"herbicidal effect, I: Ambrosia elatior",Ambrosia elatior [12],5 (Herbicidal rate 90% or more (almost complete death))
same,"herbicidal effect, L: Polygonum blumei",Polygonum blumei [13],5 (Herbicidal rate 90% or more (almost complete death))
same,"herbicidal effect, c: soybean (Glycine max)",soybean (Glycine max) [14],5 (Herbicidal rate 90% or more (almost complete death))
same,"herbicidal effect, H: Abutilon avicennae",Abutilon avicennae [15],5 (Herbicidal rate 90% or more (almost complete death))
same,"herbicidal effect, D: Digitaria adscendes",Digitaria adscendes [16],4 (Herbicidal rate 70% or more and less than 90%)
same,"herbicidal effect, J: Amaranthus retroflexus",Amaranthus retroflexus [17],5 (Herbicidal rate 90% or more (almost complete death))
same,"herbicidal effect, f: Beta vulgaris (beet)",Beta vulgaris (beet) [18],5 (Herbicidal rate 90% or more (almost complete death))
same,"herbicidal effect, K: Chenopodium album",Chenopodium album [19],5 (Herbicidal rate 90% or more (almost complete death))
same,"herbicidal effect, E: Setaria viridis",Setaria viridis [20],4 (Herbicidal rate 70% or more and less than 90%)
same,"herbicidal effect, b: corn (Zea mays)",corn (Zea mays) [21],4 (Herbicidal rate 70% or more and less than 90%)
same,"herbicidal effect, M: Stellaria media",Stellaria media [22],5 (Herbicidal rate 90% or more (almost complete death))
same,"herbicidal effect, G: Black-grass",Black-grass [23],5 (Herbicidal rate 90% or more (almost complete death))
same,"herbicidal effect, A: Echinochloa crus-galli",Echinochloa crus-galli [24],4 (Herbicidal rate 70% or more and less than 90%)
same,"herbicidal effect, F: Avena fatua",Avena fatua [25],4 (Herbicidal rate 70% or more and less than 90%)
same,"herbicidal effect, e: Triticum aestivum (wheat)",[26],5 (Herbicidal rate 90% or more (almost complete death))
same,"herbicidal effect, I: Ambrosia elatior",Ambrosia elatior [27],5 (Herbicidal rate 90% or more (almost complete death))
same,"herbicidal effect, L: Polygonum blumei",Polygonum blumei [28],5 (Herbicidal rate 90% or more (almost complete death))
same,"herbicidal effect, c: soybean (Glycine max)",soybean (Glycine max) [29],3 (Herbicidal rate 40% or more and less than 70%)
same,"herbicidal effect, H: Abutilon avicennae",Abutilon avicennae [30],4 (Herbicidal rate 70% or more and less than 90%)
same,"herbicidal effect, C: Monochoria vaginalis",Monochoria vaginalis [31],5 (Herbicidal rate 90% or more (almost complete death))
same,"herbicidal effect, A: Echinochloa crus-galli",Echinochloa crus-galli [32],5 (Herbicidal rate 90% or more (almost complete death))
same,"herbicidal effect, B: Scirpus juncoides",Scirpus juncoides [33],5 (Herbicidal rate 90% or more (almost complete death))
same,"herbicidal effect, C: Monochoria vaginalis",Monochoria vaginalis [34],5 (Herbicidal rate 90% or more (almost complete death))
same,"herbicidal effect, A: Echinochloa crus-galli",Echinochloa crus-galli [35],5 (Herbicidal rate 90% or more (almost complete death))
same,"herbicidal effect, B: Scirpus juncoides",Scirpus juncoides [36],5 (Herbicidal rate 90% or more (almost complete death))
same,"herbicidal effect, d: direct sown rice",direct sown rice [37],5 (Herbicidal rate 90% or more (almost complete death))
same,"herbicidal effect, d: direct sown rice",direct sown rice [38],2 (Herbicidal rate 20% or more and less than 40%)
